The target of this test is T1, hTLR7 (Homo sapiens, UniProt Q9NYK1).
T1 sequence (Q9NYK1 27-1049): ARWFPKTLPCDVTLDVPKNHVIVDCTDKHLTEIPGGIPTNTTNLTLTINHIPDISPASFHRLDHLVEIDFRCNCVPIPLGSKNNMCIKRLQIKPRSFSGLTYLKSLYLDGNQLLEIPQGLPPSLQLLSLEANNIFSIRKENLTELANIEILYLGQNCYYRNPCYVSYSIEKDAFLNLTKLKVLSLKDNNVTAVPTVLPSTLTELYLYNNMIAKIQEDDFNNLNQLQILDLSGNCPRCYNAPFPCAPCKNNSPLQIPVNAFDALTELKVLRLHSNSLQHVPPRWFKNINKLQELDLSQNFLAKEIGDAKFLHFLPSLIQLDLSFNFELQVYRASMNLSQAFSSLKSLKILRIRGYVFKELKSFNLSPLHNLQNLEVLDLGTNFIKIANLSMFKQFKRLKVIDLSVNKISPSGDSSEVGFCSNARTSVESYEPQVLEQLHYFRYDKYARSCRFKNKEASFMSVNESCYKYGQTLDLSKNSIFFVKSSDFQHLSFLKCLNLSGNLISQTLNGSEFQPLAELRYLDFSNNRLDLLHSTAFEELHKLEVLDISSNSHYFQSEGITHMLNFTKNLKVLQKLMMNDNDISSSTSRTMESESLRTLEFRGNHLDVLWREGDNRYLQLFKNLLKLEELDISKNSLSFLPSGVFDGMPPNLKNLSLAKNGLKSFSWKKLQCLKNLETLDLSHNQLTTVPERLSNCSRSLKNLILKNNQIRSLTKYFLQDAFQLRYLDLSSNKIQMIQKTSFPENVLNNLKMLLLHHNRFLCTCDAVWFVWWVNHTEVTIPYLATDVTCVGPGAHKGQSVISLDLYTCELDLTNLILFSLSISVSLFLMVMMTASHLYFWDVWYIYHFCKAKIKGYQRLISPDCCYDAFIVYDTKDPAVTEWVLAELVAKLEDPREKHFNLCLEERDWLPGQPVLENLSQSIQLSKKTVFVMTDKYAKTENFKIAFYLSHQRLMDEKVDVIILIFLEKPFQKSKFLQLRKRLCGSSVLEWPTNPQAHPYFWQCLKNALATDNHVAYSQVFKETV
Nature of the test: HEK293-Blue-hTLR-7 cells assay (SEAP reporter, R848 stimulation). Type of test: cell-based. The following applies: HEK293-Blue-hTLR7 cells, R848, 20 hrs; read-out: HEK/hTLR7 IC50. Also noted: host or cells: HEK293 (HEK-Blue). The source says: A stable HEK293-Blue-hTLR-7 cell line was purchased from InvivoGen (Cat.#: hkb-htlr7, San Diego, California, USA). These cells were originally designed for studying the stimulation of human TLR7 by monitoring the activation of NF-κB. A SEAP (secreted embryonic alkaline phosphatase) reporter gene was placed under the control of the IFN-β minimal promoter fused to five NF-κB and AP-1-binding sites. The SEAP was induced by activating NF-xB and AP-1 via stimulating HEK-Blue hTT,R7 cells with TLR7 ligands. Therefore, the reporter expression was declined by TLR7 antagonist under the stimulation of a ligand, such as R848 (Resiquimod), for incubation of 20 hrs. The cell culture supernatant SEAP reporter activity was determined using QUANTI-Blue™ kit (Cat.#: rep-qb1, Invivogen, San Diego, Ca, USA) at a wavelength of 640 nm, a detection medium that turns purple or blue in the presence of alkaline phosphatase.
HEK293-Blue-hTLR7 cells were incubated at a density of 250,000-450,000 cells/mL in a volume of 170 µL in a 96-well plate in Dulbecco's Modified Eagle's medium (DMEM) containing 4.5 g/L glucose, 50 U/mL penicillin, […], […], 2 mM L-glutamine, 10% (v/v) heat-inactivated fetal bovine serum with addition of 20 µL test compound in a serial dilution in the presence of final DMSO at 1% and 10 µL of 20uM R848 in above DMEM, perform incubation under 37 °C in a CO2 incubator for 20 hrs. Then 20 µL of the supernatant from each well was incubated with 180 µL Quanti-blue substrate solution at 37 °C for 2 hrs and the absorbance was read at 620-655 nm using a spectrophotometer. The signaling pathway that TLR7 activation leads to downstream NF-xB activation has been widely accepted, and therefore similar reporter assay was modified for evaluating TLR7 antagonist.

SMILES strings stand for the structures.

From patent publication EP3807270B1, “NOVEL HETEROARYL HETEROCYCLYL COMPOUNDS FOR THE TREATMENT OF AUTOIMMUNE DISEASE” (F. Hoffmann-La Roche AG, priority 2018, dated 2019) come the findings set out here.

`C[C@@H]1CN(c2ccc(C#N)c3ncccc23)C[C@H](CN2CCC(Nc3ncc4c(n3)CCNC4)C2)O1` (stereo partly drawn) [Example 57, 5-[(2R,6S)-2-methyl-6-[[3-(5,6,7,8-tetrahydropyrido [4,3-d]pyrimidin-2-ylamino)pyrrolidin-1-yl]methyl]morpholin-4-yl] quinoline-8-carbonitrile]: the IC50 was 20 nM.

Turning to `C[C@@H]1CN(c2ccc(C#N)c3ncccc23)C[C@H](CN2CCN(c3ccc4c(n3)CCNC4)C[C@H](O)C2)O1` (single isomer, unassigned) [Example 35A], the IC50 amounted to 60 nM.

For `CC1NCc2cc(N3CCN(C[C@H]4CN(c5ccc(C#N)c6ncccc56)C[C@@H](C)O4)CC3)ccc21` (stereo partly drawn) [Example 28, 5-[(2R,6S)-2-methyl-6-[[4-(1-methylisoindolin-5-yl)piperazin-1-yl]methyl]morpholin-4-yl]quinoline-8-carbonitrile], the IC50 stood at 11 nM.

For the molecule `C[C@@H]1CN(c2ccc(C#N)c3ncccc23)C[C@H](CN2CCN(c3ccc4c(c3)CNC4)CC2)O1` [Example 7, 5-[(2S,6R)-2-[(4-isoindolin-5-ylpiperazin-1-yl)methyl]-6-methyl-morpholin-4-yl] quinoline-8-carbonitrile], the IC50 stood at 39 nM.

Take `C[C@@H]1Cc2cnc(N3CCN(C[C@H]4CN(c5ccc(C#N)c6nccnc56)C[C@@H](C)O4)CC3)cc2CN1` (single isomer, unassigned) [Example 82]: the IC50 is 11 nM.

Consider `C[C@@H]1CN(c2ccc(C#N)c3ncccc23)C[C@H](CN2CCN(c3ccc4c(n3)CN[C@H]4C)CC2)O1` (single isomer, unassigned) [Example 63], for which the IC50 is 11 nM.

As for `C[C@@H]1CN(c2ccc(C#N)c3ncccc23)C[C@H](CN2CCN(c3cnc4c(n3)CNCC4)CC2)O1` [Example 40, 5-[(2R,6S)-2-methyl-6-[[4-(5,6,7,8-tetrahydropyrido[3,4-b]pyrazin-3-yl)piperazin-1-yl]methyl]morpholin-4-yl]quinoline-8-carbonitrile], the IC50 came to 7 nM.

In the case of `C[C@@H]1CN(c2ccc(C#N)c3ncccc23)C[C@H](CN2CCN(c3cnc4c(n3)CCNC4)CC2)O1` [Example 17, 5-[(2R,6S)-2-methyl-6-[[4-(5,6,7,8-tetrahydropyrido[3,4-b]pyrazin-2-yl)piperazin-1-yl]methyl]morpholin-4-yl]quinoline-8-carbonitrile], the IC50 turned out to be 11 nM.

On to `C[C@@H]1CN(c2ccc(C#N)c3ncccc23)C[C@H](CNC2CN(c3cnc4c(c3)CNC4)C2)O1` [Example 43, 5-[(2S,6R)-2-[[[1-(6,7-dihydro-5H-pyrrolo[3,4-b]pyridin-3-yl)azetidin-3-yl]amino]methyl]-6-methyl-morpholin-4-yl]quinoline-8-carbonitrile], for which the IC50 is 130 nM.

Consider `C[C@@H]1CN(c2ccc(C#N)c3ncccc23)C[C@H](CN2CCN(c3ccc4c(n3)CNC4)CC2)O1` [Example 30, 5-[(2S,6R)-2-[[4-(6,7-dihydro-5H-pyrrolo[3,4-b]pyridin-2-yl)piperazin-1-yl]methyl]-6-methyl-morpholin-4-yl] quinoline-8-carbonitrile], for which the IC50 worked out at 12 nM.

As for `C[C@@H]1CN(c2ccc(C#N)c3ncccc23)C[C@H](CN2CCN(c3cnc4c(c3)CNCC4)CC2)O1` [Example 21, 5-[(2R,6S)-2-methyl-6-[[4-(5,6,7,8-tetrahydro-1,6-naphthyridin-3-yl)piperazin-1-yl]methyl]morpholin-4-yl]quinoline-8-carbonitrile], the IC50 came out at 11 nM.

For the molecule `C[C@@H]1CN(c2ccc(C#N)c3ncccc23)C[C@H](CN2CCN(c3cccc4c3CNC4)CC2)O1` [Example 2, 5-[(2S,6R)-2-[(4-isoindolin-4-ylpiperazin-1-yl)methyl]-6-methyl-morpholin-4-yl] quinoline-8-carbonitrile], the IC50 stood at 4 nM.

For `C[C@@H]1CN(c2ccc(C#N)c3ncccc23)C[C@H](CN2CC3(C2)CN(c2ccc4c(n2)CCNC4)CCO3)O1` [Example 49, 5-[(2R,6S)-2-methyl-6-[[8-(5,6,7,8-tetrahydro-1,6-naphthyridin-2-yl)-5-oxa-2,8-diazaspiro[3.5]nonan-2-yl]methyl]morpholin-4-yl]quinoline-8-carbonitrile], the IC50 stood at 5 nM.

Take `C[C@@H]1CN(c2ccc(C#N)c3ncccc23)C[C@H](CN2CCN(c3ccc4c(n3)CNCC4)CC2)O1` [Example 69, 5-[(2R,6S)-2-methyl-6-[[4-(5,6,7,8-tetrahydro-1,7-naphthyridin-2-yl)piperazin-1-yl]methyl]morpholin-4-yl]quinoline-8-carbonitrile]: the IC50 stood at 12 nM.

Consider `C[C@@H]1CN(c2ccc(C#N)c3ncccc23)C[C@H](CN2CCN(c3cc4c(cn3)[C@@H](C)NCC4)CC2)O1` (single isomer, unassigned) [Example 73], for which the IC50 was 17 nM.

For the molecule `C[C@@H]1CN(c2ccc(C#N)c3ncccc23)C[C@H](CN2CCN(c3ccc4c(c3)C(O)CN(C)C4)CC2)O1` (stereo partly drawn) [Example 59, 5-[(2S,6R)-2-[[4-(4-hydroxy-2-methyl-3,4-dihydro-1H-isoquinolin-6-yl)piperazin-1-yl]methyl]-6-methyl-morpholin-4-yl]quinoline-8-carbonitrile], the IC50 came out at 41 nM.

Take `C[C@@H]1CN(c2ccc(C#N)c3ncccc23)C[C@H](CN2CCN(c3ncnc4c3CNCC4)CC2)O1` [Example 61, 5-[(2R,6S)-2-methyl-6-[[4-(5,6,7,8-tetrahydropyrido[4,3-d]pyrimidin-4-yl)piperazin-1-yl]methyl]morpholin-4-yl]quinoline-8-carbonitrile]: the IC50 came out at 5 nM.

As to `C[C@@H]1CN(c2ccc(C#N)c3ncccc23)C[C@H](CN2CCN(c3ccc4c(n3)[C@H](C)NC4)CC2)O1` (single isomer, unassigned) [Example 66], the IC50 is 14 nM.

With `CC1NCc2ncc(N3CCN(C[C@H]4CN(c5ccc(C#N)c6ncccc56)C[C@@H](C)O4)CC3)cc21` (stereo partly drawn) [Example 41, 5-[(2R,6S)-2-methyl-6-[[4-(5-methyl-6,7-dihydro-5H-pyrrolo[3,4-b]pyridin-3-yl)piperazin-1-yl]methyl]morpholin-4-yl]quinoline-8-carbonitrile], the IC50 worked out at 28 nM.

`COc1ccc(N2CCN(C[C@H]3CN(c4ccc(C#N)c5ncccc45)C[C@@H](C)O3)CC2)cc1` [Example R1, 5-[(2S,6R)-2-[[4-(4-methoxyphenyl)piperazin-1-yl]methyl]-6-methyl-morpholin-4-yl]quinoline-8-carbonitrile, reference compound]: the IC50 was found to be 95 nM.

As for `Cc1nc2c(nc1N1CCN(C[C@H]3CN(c4ccc(C#N)c5ncccc45)C[C@@H](C)O3)CC1)CCNC2` [Example 60, 5-[(2R,6S)-2-methyl-6-[[4-(3-methyl-5,6,7,8-tetrahydropyrido[3,4-b]pyrazin-2-yl)piperazin-1-yl]methyl]morpholin-4-yl]quinoline-8-carbonitrile], the IC50 turned out to be 11 nM.

For `C[C@@H]1CN(c2ccc(C#N)c3ncccc23)C[C@H](CN2CC3(C2)CN(c2cc4c(cn2)CCNC4)CCO3)O1` [Example 48, 5-[(2R,6S)-2-methyl-6-[[8-(5,6,7,8-tetrahydro-2,6-naphthyridin-3-yl)-5-oxa-2,8-diazaspiro[3.5]nonan-2-yl]methyl]morpholin-4-yl]quinoline-8-carbonitrile], the IC50 was determined as 5 nM.
